Laboratory results: patent US10786451B2, “Process for preparing a dry powder formulation comprising an anticholinergic, a corticosteroid and a beta-adrenergic” (CHIESI FARMACEUTICI S.P.A., priority 2015, dated 2020)

Experiments:
[1] = Aerosol performance by Next Generation Impactor (NGI) from multidose dry powder inhaler; type: physicochemical
Description: With the term “mid FPF” is defined as the fraction of delivered dose having a particle size comprised between […].
After aerosolization of 3 doses from the inhaler device, the NGI apparatus was disassembled and the amounts of drug deposited in the stages were recovered by washing with a solvent mixture and then quantified by High-Performance Liquid Chromatography (HPLC)

[2] = Uniformity of distribution of the active ingredients in the blend (12 samples, HPLC); type: physicochemical
Description: In the context of the present application the flow properties were tested by measuring the flow rate through an orifice according to the method described in the European Pharmacopeia (Eur. Ph.) 8.6, 8th Edition, which is incorporated herein by reference in its entirety. […] It is usually determined according to known methods, for instance by taking samples from different parts of the powder and testing the component by HPLC or other equivalent analytical methods. The uniformity of distribution of the active ingredients was evaluated by withdrawing 12 samples from different parts of the blend and evaluated by HPLC.

[3] = Particle size (volume diameter) by laser diffraction, Malvern apparatus; type: physicochemical; conditions: micronized material as used
Description: The size of the particles active is determined by measuring the characteristic equivalent sphere diameter, known as volume diameter, by laser diffraction. In the reported examples, the volume diameter has been determined using a Malvern apparatus. However, other equivalent apparatus may be used by the skilled person in the art.

[4] = formulations disclosed Table 3 of WO 2015/004243; cited from earlier work
[5] = Batch CY (Cyclomix), reference formulation per WO 2015/004243
[6] = Batch MF (mechano-fusion), reference formulation per WO 2015/004243
[7] = powder formulation of Example 2
[8] = powder formulation of Example 2, NGI, 3 doses
[9] = powder formulation of Example 2, between 2.0 and 5.0 micron
[10] = powder formulation of Example 2, particle size equal to or lower than 5.0 micron
[11] = powder formulation of Example 3
[12] = powder formulation of Example 3, NGI
[13] = powder formulation of Example 3, between 2.0 and 5.0 micron
[14] = powder formulation of Example 3, particle size equal to or lower than 5.0 micron

## CCC(=O)OCC(=O)[C@@]1(OC(=O)CC)[C@@H](C)C[C@H]2[C@@H]3CCC4=CC(=O)C=C[C@]4(C)[C@@]3(Cl)[C@@H](O)C[C@@]21C [BDP, beclometasone dipropionate]
[1]; [5]
  Delivered Dose: 90.6 µg
  Extrafine Particle Fraction <2 μm: 53.9%
  Extrafine Particle Mass <2 μm: 48.8 µg
  Fine Particle Fraction: 71.2%
  Fine Particle Mass: 64.5 µg
  MMAD: 1.08 μm
  Mid Fine Particle Mass: 15.7 µg
  Mid Fine particle Fraction: 17.3%
[1]; [6]
  Delivered Dose: 95.7 µg
  Extrafine Particle Fraction <2 μm: 52.2%
  Extrafine Particle Mass <2 μm: 50.0 µg
  Fine Particle Fraction: 69.9%
  Fine Particle Mass: 66.9 µg
  MMAD: 1.13 μm
  Mid Fine Particle Mass: 16.9 µg
  Mid Fine particle Fraction: 17.7%
[1]; [7]
  Extrafine Particle Fraction <1 μm: 28.7%
  Extrafine Particle Fraction <2 μm: 51.4%
  Extrafine Particle Mass <1 μm: 27.9 µg
  Extrafine Particle Mass <2 μm: 50 µg
  Fine Particle Fraction: 69.4%
  MMAD: 1.25 μm
[1]; [8]
  Delivered Dose: 97.4 µg
[1]; [9]
  Mid Fine Particle Mass: 17.6 µg
  Mid Fine particle Fraction: 18%
[1]; [10]
  Fine Particle Mass: 67.6 µg
[1]; [11]
  Extrafine Particle Fraction <1 μm: 16.2%
  Extrafine Particle Fraction <2 μm: 40.3%
  Extrafine Particle Mass <1 μm: 13.1 µg
  Extrafine Particle Mass <2 μm: 32.7 µg
  Fine Particle Fraction: 61.8%
  MMAD: 1.62 μm
[1]; [12]
  Delivered Dose: 80.9 µg
[1]; [13]
  Mid Fine Particle Mass: 17.3 µg
  Mid Fine particle Fraction: 21.4%
[1]; [14]
  Fine Particle Mass: 50.0 µg
[2]; powder formulation of Example 2 (6 μg FF, 100 μg BDP, 12.5 μg GB per 10 mg carrier), mean value, RSD in next column
  Uniformity of distribution: 101.8
[2]; powder formulation of Example 3 (6 μg FF, 100 μg BDP, 25 μg GB per 10 mg carrier)
  Uniformity of distribution: 100.2
[3]
  particle size d(v0.1): 0.7 micron
  particle size d(v0.5): 1.5 micron
  particle size d(v0.9): 2.8 micron

## C[N+]1(C)CCC(OC(=O)C(O)(c2ccccc2)C2CCCC2)C1 (centres unmarked) [GB, Glycopyrronium bromide]
[1]; [5]
  Delivered Dose: 11.6 µg
  Extrafine Particle Fraction <2 μm: 34.5%
  Extrafine Particle Mass <2 μm: 4.0 µg
  Fine Particle Fraction: 53.8%
  Fine Particle Mass: 6.6 µg
  MMAD: 1.78 μm
  Mid Fine Particle Mass: 2.6 µg
  Mid Fine particle Fraction: 22.4%
[1]; [6]
  Delivered Dose: 11.9 µg
  Extrafine Particle Fraction <2 μm: 33.6%
  Extrafine Particle Mass <2 μm: 4.0 µg
  Fine Particle Fraction: 57.2%
  Fine Particle Mass: 6.4 µg
  MMAD: 1.75 μm
  Mid Fine Particle Mass: 2.5 µg
  Mid Fine particle Fraction: 21.0%
[1]; [7]
  Extrafine Particle Fraction <1 μm: 15.4%
  Extrafine Particle Fraction <2 μm: 37.6%
  Extrafine Particle Mass <1 μm: 1.8 µg
  Extrafine Particle Mass <2 μm: 4.39 µg
  Fine Particle Fraction: 67.2%
  MMAD: 1.92 μm
[1]; [8]
  Delivered Dose: 11.66 µg
[1]; [9]
  Mid Fine Particle Mass: 3.46 µg
  Mid Fine particle Fraction: 29.6%
[1]; powder formulation of Example 2, between 2.0 and 5.0 micron, listed as glycopyrrolate
  Mid Fine particle Fraction: about 30%
[1]; [10]
  Fine Particle Mass: 7.85 µg
[1]; [11]
  Extrafine Particle Fraction <1 μm: 8.7%
  Extrafine Particle Fraction <2 μm: 27.4%
  Extrafine Particle Mass <1 μm: 1.75 µg
  Extrafine Particle Mass <2 μm: 5.49 µg
  Fine Particle Fraction: 57.1%
  MMAD: 2.15 μm
[1]; [12]
  Delivered Dose: 20.03 µg
[1]; [13]
  Mid Fine Particle Mass: 5.94 µg
  Mid Fine particle Fraction: 29.7%
[1]; powder formulation of Example 3, between 2.0 and 5.0 micron, listed as glycopyrrolate
  Mid Fine particle Fraction: about 30%
[1]; [14]
  Fine Particle Mass: 11.43 µg
[3]
  particle size d(v0.1): 0.39 micron
  particle size d(v0.5): 1.91 micron
  particle size d(v0.9): 4.77 micron
[4]
  mid FPF: about 20%

## O.OC[C@H]1O[C@@H](O[C@H]2[C@H](O)[C@@H](O)[C@@H](O)O[C@@H]2CO)[C@H](O)[C@@H](O)[C@H]1O [Micronized alpha-lactose monohydrate, alpha-lactose monohydrate]
[3]
  particle size d(v0.1): 1.7 micron
  particle size d(v0.5): 4.3 micron
  particle size d(v0.9): 9.8 micron
